Source: patent US20200138921A1, “METHODS OF PREVENTING AND TREATING DISEASES CHARACTERIZED BY SYNAPTIC DYSFUNCTION AND NEURODEGENERATION INCLUDING ALZHEIMER'S DISEASE” (The Trustees of Columbia University in the City of New York, priority 2017, published 2020)

Assays:
J20 mice = test: Morris water maze in J20 AD mice; assay type: in vivo; settings: single TOP injection 275 μg
From the text: The J20 transgenic mouse line also used in the studies expresses a mutated human APP (hAPP: K670N/M671L and V717F) under the control of the platelet-derived growth factor promoter (Mucke et al. 2000). These mice have deficits in learning and memory, inhibition of long-term potentiation, loss of dendritic spines, profuse amyloid plaques, and increased phosphorylation of the tau protein. These mice also have increased RhoA-GTP activity and progressive decrease in spinal density when treated with oligomeric Aβ. See Pozueta et al. 2013.
Mice were trained to find a hidden platform in a circular pool of 1.10 m diameter located in a room with extra maze cues. The location of the platform ([…] diameter) was constant for each mouse during training and was placed 1 cm beneath the surface of the water, maintained at 24° C.±2° C. throughout the duration of the test. At the end of test, the mice were dried off and placed in a clean cage with extra paper towels to prevent hypothermia Animals were then monitored inside their cage until eating, drinking, and ambulating normally Mice were trained in sessions consisting of four trials a day for five consecutive days. Mice started from different quadrants on a random basis during each trial and all four quadrants were used on any given day. The maximum swimming time allowed on each trial was 60 seconds.
Probe trials (1 session: 1 trials/session) were conducted 24 hours after the last training trial. During the probe test the platform was removed and mice were free to swim in the pool for 60 seconds. Time spent in each quadrant was measured. Trial and probe test sessions were recorded and analyzed with a video tracking system (Noldus). After the probe, mice were tested in the visible test for two consecutive days, 2 sessions/day with 3 trials/session to assess whether the mice were able to locate a visible platform (its location varied between the three trials of the same session). The ability of the mice to locate a clearly visible platform was also tested in order to exclude differences in vision, swim speed, and motivation. […]

GluR1 = test: Surface GluR1 in hippocampal neurons (biotinylated surface Western blot, immunostaining); assay type: cell-based, rat; settings: hippocampal neurons treated with Aβ
Experimental: Cells were fixed in PFA (4%) in […] PBS for 10 minutes at room temperature. Permeabilization was performed using 0.4% Triton X-100 (Sigma) in PBS for 20 minutes. Then, cells were incubated in anti-GluR1 primary antibody (Millipore) in Superblock (Thermo Scientific) with 0.1% Triton X-100 for 12 hours at 4° C. Cells were washed with PBS, and then incubated in goat anti-mouse Alexa 568 in Superblock with 0.1% Triton X-100 for 1 hour at RT. Then cells were mounted onto glass slides using Gel Mount (Biomeda).
The consequences of upregulation of Arc and Ephexin-5 are well characterized. In the case of Arc, one its key function is to regulate postsynaptic trafficking of AMPA receptor subunits, and to regulate spine morphology and network stability (Korb and Finkbeiner 2011).

## CC[C@@]1(O)C(=O)OCc2c1cc1n(c2=O)Cc2cc3c(CN(C)C)c(O)ccc3nc2-1 [TOP, topotecan]
J20 mice
  learning (Morris water maze latency to platform): did not affect
  memory (Morris water maze time in target quadrant): significantly increased
J20 mice; speed and time to platform
  motor functions or motivation: no effect

## oAβ: synthetic soluble oligomeric Aβ1-42
GluR1
  levels of surface-expressed GluR1 subunit: significant decrease
